The test system of one assay is Hepatitis C virus. Kind of assay: Antiviral activity against HCV by replicon assay. The assay is classed as functional, organism-based, Hepacivirus hominis. (In antiviral work, replicon cells carry a viral genome segment that copies itself.)
The nature of assay [1]: Cytotoxicity against human U-87 MG cells measured after 3 days by Celltiter-glo assay. It is filed as functional, U-87MG ATCC. As to conditions: 72 h, time 3 day. (In general: Cellular ATP, detected with luciferase, serves as a proxy for viable cell number.)

For orientation: EC50 means the concentration at which the effect is half-maximal. Read a high EC50 as a need for much substance. Turning to `C[C@@]1(F)[C@H](O)[C@@H](CO)S[C@@H]1n1ccc(N)nc1=O`, the EC50 with Hepatitis C virus was > 100 µM. As for `Nc1ccn([C@@H]2S[C@H](CO)[C@@H](O)C2(F)F)c(=O)n1`, the EC50 in the assay with Hepatitis C virus came to 22.5 µM. `CC(C)OC(=O)[C@@H](C)N[P@](=O)(OC[C@H]1S[C@@H](n2ccc(=O)[nH]c2=O)[C@](C)(F)[C@@H]1O)Oc1ccccc1` had a 50% effective concentration (EC50) in the assay with Hepatitis C virus of 2.99 µM. As for `Nc1ccn([C@H]2[C@H](O)[C@H](O)[C@@H](CO)[S+]2[O-])c(=O)n1` (stereo not given in full), the EC50 in the assay on Hepatitis C virus was > 100 µM. `C[C@@]1(F)[C@H](O)[C@@H](CO)S[C@H]1n1ccc(N)nc1=O`: the EC50 in the assay on Hepatitis C virus was > 100 µM. Regarding `C[C@@]1(F)[C@H](O)[C@@H](CO)S[C@H]1n1ccc(=O)[nH]c1=O`, in the assay on Hepatitis C virus, the EC50 was > 100 µM. The same measure, in the same setting: the same measure for `C[C@@]1(F)[C@H](O)[C@@H](CO)S[C@@H]1n1ccc(=O)[nH]c1=O`: > 100 µM; for `Nc1ccn([C@@H]2[S+]([O-])[C@H](CO)[C@@H](O)C2(F)F)c(=O)n1` (mixture of isomers): 21.8 µM. For the compound `Nc1ccn([C@H]2[C@@H](O)[C@H](O)[C@@H](CO)[S+]2[O-])c(=O)n1` (mixture of isomers), the EC50 with Hepatitis C virus was > 100 µM.

Consider `O=c1ccn([C@@H]2O[C@H](CO)[C@@H](O)[C@@H]2O)c(=O)[nH]1` [ARAURIDINE], for which the concentration for a half-maximal effect (EC50) in the assay on Hepatitis C virus was > 100 µM.

By CC50 is commonly meant the concentration giving 50% cytotoxicity. Read a low CC50 as greater toxicity to the cells. In the assay with Hepatitis C virus, `Nc1ccn([C@@H]2O[C@H](CO)[C@@H](O)[C@@H]2O)c(=O)n1` [CYTARABINE] yielded an EC50 of 0.16 µM. The compound further gave a CC50 in assay [1] of 0.19 µM. Consider `Nc1ccn([C@@H]2O[C@H](CO)[C@@H](O)[C@H]2O)c(=O)n1` [CYTIDINE], for which, in the assay on Hepatitis C virus, the EC50 was determined as 50 µM. Consider `CC(C)OC(=O)[C@H](C)N[P@](=O)(OC[C@H]1O[C@@H](n2ccc(=O)[nH]c2=O)[C@](C)(F)[C@@H]1O)Oc1ccccc1` [SOFOSBUVIR], for which the concentration for a half-maximal effect (EC50) with Hepatitis C virus came out at 0.03 µM. In the assay on Hepatitis C virus, `O=c1ccn([C@@H]2O[C@H](CO)[C@@H](O)[C@H]2O)c(=O)[nH]1` [URIDINE] displayed an EC50 of 65.9 µM.

(Values after ChEMBL document CHEMBL5131483, “Design, chemical synthesis and antiviral evaluation of 2'-deoxy-2'-fluoro-2'-C-methyl-4'-thionucleosides” (Bioorg Med Chem Lett, 2022).)
